Assay results: US4199600A, “Preservation of aqueous systems with α-halo-β-aminocrotonic acid esters” (Givaudan Corporation, priority 1978, dated 1980)
Values after ≈ are worked out from the molar mass of the structure shown. Read-outs that look alike come from different tables or passages of the source.

What was measured:
Assay type in all cases: cell-based
Aspergillis oryzae = test: General antimicrobial activity, agar dilution MIC (fungi); conditions: 168 h, mildew glucose agar, 28° C., seven days, growth only at the lower concentration of the range, read-out: Minimum Inhibitory Concentration
Procedure: A 6% soltuion of α-halo-β-aminocrotonic acid ester in dimethyl formamide was prepared. The 6% solution was then […] serially diluted in test tubes to give the desired concentrations when mixed with agar and poured into sterile Petri dishes. For instance, 0.8 ml of a 6% stock solution plus 24.2 ml of agar gives a test concentration of 1920 mcg/ml, the highest level tested. Tryptone glucose extract agar is used for the bacterial testing; mildew glucose agar for the fungal testing. The bacterial plates were spot inoculated with 24-hour nutrient broth cultures and incubated at 37° C. for 48 hours. The fungal plates were spot inoculated with spore suspensions and incubated at 28° C. for seven days. At the end of the incubation periods, all plates were examined for growth. The minimum inhibitory concentration (MIC) for each organism is expressed in Table I. In the ranges presented, growth is observed only at the lower concentration.

Aspergillus niger = test: Cosmetic preservative test in lotion; conditions: 28° C.
Procedure: (§1) The α-halo-β-aminocrotonic acid esters are effective cosmetic preservatives. Two-fold serial dilutions of 6% solutions of the α-halo-β-aminocrotonic acid esters in dimethylformamide were added to a cosmetic lotion of the following formulation: The lotions were inoculated with both Pseudomonas aeruginosa and Aspergillus niger and incubated at 28° C. At weekly intervals, the lotions were examined for microorganisms by conventional streak-plate methods or by macroscopic observation. The lotions were then reinoculated with the test organisms and reincubated.

Pseudomonas aeruginosa [1] = test: Cosmetic preservative test in lotion; conditions: 28° C.
Procedure: as §1

Pseudomonas aeruginosa [2] = test: Cutting oil preservative test in 3.3% cutting oil emulsion; conditions: for MIC: Pseudomonas aeruginosa, 3.3% cutting oil emulsion, 28° C., rotary shaker, read-out: Minimum Inhibitory Concentration Range
Procedure: (§2) In running these tests, two-fold serial dilutions of 6% solutions of the compound in dimethylformamide was added to 3.3% cutting oil elumsions. The emulsions were prepared by diluting with water a commercially available cutting oil concentrate. The emulsions were inoculated with a culture of Pseudomonas aeruginosa and incubated at 28° C. on a rotary shaker. At weekly intervals, the emulsions were examined for bacteria by conventional streakplate methods. The emulsions were then reinoculated with Pseudomonas aeruginosa and reincubated.

Pseudomonas aeruginosa [3] = test: Textile lubricant preservative test; conditions: commercial textile lubricant, 28° C.
Procedure: as §2
The test run was the same as for the cutting oil above except that a commercial textile lubricant was substituted.

A. niger = test: Slimicide test for pulp and paper mill water systems; conditions: 28° C.
Procedure: (§3) Various quantities of a 6% solution of this compound in dimethylformamide were incorporated into 24 ml of a test substrate composed as follows:
(§4) 8.4 g--Whatman No. 2 powdered cellulose
(§5) 1.0 g--Nutrient Broth, Difco
(§6) 10.0 ml--Mersize Rm 70R (Monsanto)
(§7) The samples were inoculated with four different organisms and incubated at 28° C. At weekly intervals the samples were examined for the presence of microbial growth and reinoculated during a total incubation period of four weeks.

E. aerogenes = test: as above; conditions: Klebsiella aerogenes, 28° C.
Procedure: as §3, §4, §5, §6, §7

P. Piscarium = test: as above; conditions: 28° C.
Procedure: as §3, §4, §5, §6, §7

P. aeruginosa = test: as above; conditions: 28° C.
Procedure: as §3, §4, §5, §6, §7

[4] = week 1, read-out: Minimum Inhibitory Concentration Range
[5] = week 3, reinoculated weekly, read-out: Minimum Inhibitory Concentration Range
[6] = week 4, reinoculated weekly, read-out: Minimum Inhibitory Concentration Range
[7] = (week 4), reinoculated weekly, read-out: Effectiveness as a Slimicide
[8] = week 1, read-out: Effectiveness as a Slimicide
[9] = week 2, reinoculated weekly, read-out: Effectiveness as a Slimicide
[10] = week 3, reinoculated weekly, read-out: Effectiveness as a Slimicide

MIC (Aspergillis oryzae): 15 µg/mL (≈ 100 µM)
MIC (Aspergillus niger; [4]): < 125 µg/mL
MIC (Aspergillus niger; [5]): 1000 to 2000 µg/mL (≈ 6690 to 13400 µM)
MIC (Aspergillus niger; [6]): > 2000 µg/mL
MIC (Pseudomonas aeruginosa [1]; Pseudomonas aeruginosa, week 1, read-out: Minimum Inhibitory Concentration Range): < 125 µg/mL
MIC (Pseudomonas aeruginosa [2]; week 1): < 31.3 µg/mL
MIC (Pseudomonas aeruginosa [2]; week 2, reinoculated weekly): 62.5 to 125 µg/mL (≈ 418 to 836 µM)
MIC (Pseudomonas aeruginosa [2]; week 3, reinoculated weekly): 125 to 250 µg/mL (≈ 836 to 1670 µM)
MIC (Pseudomonas aeruginosa [2]; week 4, reinoculated weekly): 250 to 500 µg/mL (≈ 1670 to 3340 µM)
MIC (Pseudomonas aeruginosa [3]; [4]): 62.5 to 125 µg/mL (≈ 418 to 836 µM)
MIC (Pseudomonas aeruginosa [3]; week 2, reinoculated weekly, read-out: Minimum Inhibitory Concentration Range): 62.5 to 125 µg/mL (≈ 418 to 836 µM)
MIC (Pseudomonas aeruginosa [3]; [5]): 62.5 to 125 µg/mL (≈ 418 to 836 µM)
MIC (Pseudomonas aeruginosa [3]; [6]): 125 to 250 µg/mL (≈ 836 to 1670 µM)
SMILES: COC(=O)/C(Cl)=C(/C)N [α-Chloro-β-aminocrotonic acid methyl ester]
Minimum Inhibitory Concentration Range (Pseudomonas aeruginosa [1]; week 2, reinoculated weekly): < 125 µg/mL
Minimum Inhibitory Concentration Range (Pseudomonas aeruginosa [1]; week 3, reinoculated weekly): < 125 µg/mL
Minimum Inhibitory Concentration Range (Pseudomonas aeruginosa [1]; week 4, reinoculated weekly): < 125 µg/mL
effectiveness as cutting oil preservative (in words) (Pseudomonas aeruginosa [2]; overall statement on Table III): effective cutting preservative
Effectiveness as a Slimicide (A. niger; (week 4), reinoculated weekly): < 62.5 µg/mL
Effectiveness as a Slimicide (A. niger; week 2, reinoculated weekly): < 62.5 µg/mL
Effectiveness as a Slimicide (A. niger; week 3, reinoculated weekly): < 62.5 µg/mL
MIC (A. niger; Aspergillus niger, week 1, read-out: Effectiveness as a Slimicide): < 62.5 µg/mL
MIC (E. aerogenes; [7]): 250 to 500 µg/mL (≈ 1670 to 3340 µM)
MIC (E. aerogenes; [8]): < 62.5 µg/mL
MIC (E. aerogenes; [9]): 125 to 250 µg/mL (≈ 836 to 1670 µM)
MIC (E. aerogenes; [10]): 250 to 500 µg/mL (≈ 1670 to 3340 µM)
MIC (P. Piscarium; [7]): 62.5 to 125 µg/mL (≈ 418 to 836 µM)
MIC (P. Piscarium; [8]): < 62.5 µg/mL
MIC (P. Piscarium; [9]): < 62.5 µg/mL
MIC (P. Piscarium; [10]): < 62.5 µg/mL
Effectiveness as a Slimicide (P. aeruginosa; (week 4), reinoculated weekly): < 62.5 µg/mL
Effectiveness as a Slimicide (P. aeruginosa; week 2, reinoculated weekly): < 62.5 µg/mL
Effectiveness as a Slimicide (P. aeruginosa; week 3, reinoculated weekly): < 62.5 µg/mL
MIC (P. aeruginosa; Pseudomonas aeruginosa, week 1, read-out: Effectiveness as a Slimicide): < 62.5 µg/mL
